Data reported in ChEMBL document CHEMBL4808246 (Bioorg Med Chem, 2021).

Legend:
[1] = target: T1, Prostaglandin G/H synthase 1 (Ovis aries) (UniProt P05979); test: Inhibition of ovine COX-1 assessed as production of PGE2 using arachidonic acid as a substrate preincubated for 60 mins at 0.1 uM followed by substrate addition and measured after 2 mins by ELISA analysis relative to control
T1 sequence (whole entry): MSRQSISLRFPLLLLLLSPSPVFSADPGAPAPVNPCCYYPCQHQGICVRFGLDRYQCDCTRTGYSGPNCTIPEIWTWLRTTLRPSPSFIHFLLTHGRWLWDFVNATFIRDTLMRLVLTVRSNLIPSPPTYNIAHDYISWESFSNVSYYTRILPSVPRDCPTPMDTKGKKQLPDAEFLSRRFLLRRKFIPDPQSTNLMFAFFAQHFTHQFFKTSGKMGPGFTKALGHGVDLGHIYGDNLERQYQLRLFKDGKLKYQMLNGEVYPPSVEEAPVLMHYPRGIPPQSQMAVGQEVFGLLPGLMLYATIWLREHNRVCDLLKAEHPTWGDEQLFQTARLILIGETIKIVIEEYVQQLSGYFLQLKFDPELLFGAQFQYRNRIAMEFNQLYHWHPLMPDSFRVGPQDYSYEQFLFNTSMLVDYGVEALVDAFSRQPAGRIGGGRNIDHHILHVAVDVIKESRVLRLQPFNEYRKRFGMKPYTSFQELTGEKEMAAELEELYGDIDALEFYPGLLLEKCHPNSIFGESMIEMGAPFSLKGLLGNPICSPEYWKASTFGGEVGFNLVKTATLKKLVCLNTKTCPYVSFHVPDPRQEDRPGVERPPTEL

[2] = target: T1, Prostaglandin G/H synthase 1 (Ovis aries); test: Inhibition of ovine COX-1 assessed as production of PGE2 using arachidonic acid as a substrate preincubated for 60 mins at 10 uM followed by substrate addition and measured after 2 mins by ELISA analysis relative to control
[3] = target: T1, Prostaglandin G/H synthase 1 (Ovis aries); test: Inhibition of ovine COX-1 assessed as production of PGE2 using arachidonic acid as a substrate preincubated for 60 mins at 1 uM followed by substrate addition and measured after 2 mins by ELISA analysis relative to control
[4] = target: T1, Prostaglandin G/H synthase 1 (Ovis aries); test: Inhibition of ovine COX-1 assessed as production of PGE2 using arachidonic acid as a substrate preincubated for 60 mins at 100 uM followed by substrate addition and measured after 2 mins by ELISA analysis relative to control; conditions: time 62.0 min
[5] = Solubility of the compound in water; format: physicochemical; conditions: buffer
[6] = test system: Mus musculus; test: Antiinflammatory activity in mouse xylene induced ear edema model assessed as ear weight difference at 30 mg/kg, po once daily administered for 3 days prior to xylene stimulation and measured after 30 mins (reference value: 13.64 =/- 2.55 mg); format: functional; conditions: time 3 day
[7] = test system: Mus musculus; test: Antiinflammatory activity in mouse xylene induced ear edema model assessed as inhibition of auricular edemas at 30 mg/kg, po once daily administered for 3 days prior to xylene stimulation and measured after 30 mins relative to control; format: functional; conditions: 72 h, time 3 day
[8] = test system: Mus musculus; test: Analgesic activity in mouse model of acetic-acid induced writhing assessed as number of writhes at 30 mg/kg, po once daily administered for 3 days prior to acetic acid injection measured after 20 mins (reference value: 29.13+/-9.36); format: functional; conditions: time 3 day
[9] = target: T2, Prostaglandin G/H synthase 1 (Ovis aries, UniProt P05979); test: Inhibition of ovine COX-1 assessed as production of PGE2 using arachidonic acid as a substrate preincubated for 60 mins followed by substrate addition and measured after 2 mins by ELISA analysis
T2 sequence (P05979 whole entry): T1 sequence (whole entry)

[10] = test system: Mus musculus; test: Analgesic activity in mouse model of acetic-acid induced writhing assessed as inhibition of writhing at 30 mg/kg, po once daily administered for 3 days prior to acetic acid injection measured after 20 mins relative to control; format: functional; conditions: 72 h, time 3 day
[11] = target: T3, Prostaglandin G/H synthase 2 (Homo sapiens, UniProt P35354); test: Inhibition of human recombinant COX-2 assessed as production of PGE2 using arachidonic acid as a substrate preincubated for 60 mins followed by substrate addition and measured after 2 mins by ELISA analysis
T3 sequence (P35354 whole entry): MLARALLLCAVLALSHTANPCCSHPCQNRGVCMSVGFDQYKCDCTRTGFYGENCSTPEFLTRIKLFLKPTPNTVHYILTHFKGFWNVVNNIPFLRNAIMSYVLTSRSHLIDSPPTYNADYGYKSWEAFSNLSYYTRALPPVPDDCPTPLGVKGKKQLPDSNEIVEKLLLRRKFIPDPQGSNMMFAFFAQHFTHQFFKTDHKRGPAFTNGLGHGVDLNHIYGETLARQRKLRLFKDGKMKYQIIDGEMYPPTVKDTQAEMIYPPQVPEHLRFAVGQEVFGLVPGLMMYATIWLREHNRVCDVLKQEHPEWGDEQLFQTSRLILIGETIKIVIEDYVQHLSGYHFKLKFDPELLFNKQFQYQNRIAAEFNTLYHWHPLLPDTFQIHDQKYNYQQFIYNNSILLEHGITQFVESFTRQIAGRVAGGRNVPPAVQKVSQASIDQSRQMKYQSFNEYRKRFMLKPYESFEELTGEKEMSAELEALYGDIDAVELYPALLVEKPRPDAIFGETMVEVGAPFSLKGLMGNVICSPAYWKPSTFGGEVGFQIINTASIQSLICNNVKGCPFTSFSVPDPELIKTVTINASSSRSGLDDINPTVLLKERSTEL

[12] = Selectivity index, ratio of IC50 for ovine COX-1 to IC50 for human COX-2

SMILES	inhibition [1] [%]	inhibition [2] [%]	inhibition [3] [%]	inhibition [4] [%]	solubility [5]	Activity [6] [mg]	inhibition in vivo at 30 mg/kg [7] [%]	Activity [8]	IC50 [9] [nM]	inhibition in vivo at 30 mg/kg [10] [%]	IC50 [11] [nM]	Ratio [12]
Cc1cc(-c2ccc3ccccc3c2)nn1S(=O)(=O)Oc1ccccc1	4	13	7	27	–	–	–	–	–	–	–	–
Cc1cccc(-c2cc(C)n(S(=O)(=O)Oc3ccccc3)n2)c1	–	33	–	53	Insoluble	12.46	8.7	16.38	72300	43.8	–	–
CCc1ccc(-c2cc(C)n(S(=O)(=O)Oc3ccccc3)n2)cc1	11	–	-1	–	Insoluble	10.76	21.1	15.13	–	48.1	–	–
O=S(=O)(Oc1ccccc1)n1nc(-c2ccccc2)cc1-c1ccccc1	27	44	36	68	Insoluble	10.13	25.7	17.75	9380	39.1	< 10	> 938
Cc1cc(-c2ccco2)nn1S(=O)(=O)Oc1ccccc1	47	–	–	–	Insoluble	11.93	12.5	16.75	–	42.5	31	–
Cc1cc(-c2ccccn2)nn1S(=O)(=O)Oc1ccccc1	25	29	39	29	Insoluble	12.1	11.3	24.75	–	15	100	–
Cc1ccc(-c2cc(C(C)C)n(S(=O)(=O)Oc3ccccc3)n2)cc1	20	47	39	21	–	–	–	–	18100	–	–	–
Cc1ccc(-c2cc(C)n(S(=O)(=O)Oc3ccc(C)c(C)c3)n2)cc1	18	31	30	30	–	–	–	–	> 100000	–	–	–
Cc1cc(-c2cccs2)nn1S(=O)(=O)Oc1ccccc1	18	33	24	38	–	–	–	–	> 100000	–	–	–
Cc1cc(-c2ccc(F)cc2)nn1S(=O)(=O)Oc1ccccc1	–	–	–	-2	–	–	–	–	–	–	> 10000	–
Cc1ccc(-c2cc(C)n(S(=O)(=O)Oc3ccccc3I)n2)cc1	4	14	9	19	–	–	–	–	> 100000	–	92	> 1090
Cc1cc(-c2ccccc2)nn1S(=O)(=O)Oc1ccccc1C(F)(F)F	–	–	–	–	–	–	–	–	–	–	> 100000	–
CC(COCCOCCOCCOCCOCCOCCOCCOCCOCCOCCOCCOCCOCCOCCOCCOCCOCCOCCOCCOCCOCCOCCOCCOCCOCCOCCOCCOCCOCCOCCOCCOCCOCCOCCOCCOCCOCCOCCO)OCC(C)OCC(C)OCC(C)OCC(C)OCC(C)OCC(C)OCC(C)OCC(C)OCC(C)OCC(C)OCC(C)OCC(C)OCC(C)OCC(C)OCC(C)OCC(C)OCC(C)OCC(C)OCC(C)OCC(C)OCC(C)OCC(C)OCC(C)OCC(C)OCC(C)OCC(C)OCC(C)OCC(C)OCC(C)OCCOCCOCCOCCOCCOCCOCCOCCOCCOCCOCCOCCOCCOCCOCCOCCOCCOCCOCCOCCOCCOCCOCCOCCOCCOCCOCCOCCOCCOCCOCCOCCOCCOCCOCCOCCOCCOCCO (stereo not drawn)	–	–	–	–	Insoluble	13.64	0	29.13	–	0	–	–
Cc1ccccc1-c1cc(C)n(S(=O)(=O)Oc2ccccc2)n1	65	55	63	42	–	–	–	–	–	–	11100	–
Cc1ccc(-c2cc(-c3ccccc3)n(S(=O)(=O)Oc3ccccc3)n2)cc1	10	1	-3	6	–	–	–	–	–	–	–	–
Cc1cc(-c2ccncc2)nn1S(=O)(=O)Oc1ccccc1	36	43	40	61	–	–	–	–	–	–	–	–
Cc1cc(-c2cccc(Cl)c2)nn1S(=O)(=O)Oc1ccccc1	8	5	17	14	Insoluble	8.18	10	23.63	–	18.9	110	–
Cc1cc(-c2ccccn2)nn1S(=O)(=O)Oc1ccc(Cl)cc1	51	80	56	83	–	–	–	–	90	–	5.8	16
Cc1cc(-c2ccc(Br)cc2)nn1S(=O)(=O)Oc1ccccc1	45	71	68	70	–	–	–	–	140	–	200	1
Cc1cc(-c2cccnc2)nn1S(=O)(=O)Oc1ccccc1	19	24	23	34	–	–	–	–	–	–	–	–
Cc1cc(-c2ccccc2Cl)nn1S(=O)(=O)Oc1ccccc1	61	55	55	60	–	–	–	–	–	–	–	–
Cc1cc(-c2ccc(Cl)cc2)nn1S(=O)(=O)Oc1ccccc1	16	20	18	43	–	–	–	–	> 100000	–	–	–
COc1ccc(-c2cc(C)n(S(=O)(=O)Oc3ccccc3)n2)cc1	19	29	21	30	–	–	–	–	> 100000	–	–	–
Cc1cc(-c2ccc(C(F)(F)F)cc2)nn1S(=O)(=O)Oc1ccccc1	33	18	32	22	Insoluble	8.75	35.9	21.63	–	25.8	< 10	–
